Test results reported in paper PMC10178769, “A Facile Synthesis and Molecular Characterization of Certain New Anti-Proliferative Indole-Based Chemical Entities” (International Journal of Molecular Sciences, 2023).

How the values were obtained:
[1] = MTT assay, toxicity on normal cells WI38; assay type: cell-based, human; settings: WI-38 lung fibroblast cells (non-tumorigenic); MTT, 48 h, non-tumorigenic human lung cell line; read-out: Cytotoxicity IC50 WI38
Method: (§1) The cancer cell growth inhibitory activity of the synthesized compound was tested against three human cancer cell lines, namely, breast cancer (MCF-7), colon cancer (HCT116) and lung cancer (A549), as well as non-tumorigenic human lung cell line (WI38) to estimate the selectivity for tumor cells.
(§2) Anti-proliferative activity in compounds 4a–q were tested in three cancerous cell lines (MCF-7 breast cancer cells, A549 lung carcinoma, HCT human colon cancer cells) and in WI-38 human lung fibroblast cells. Cells were plated at a density of 1.2–1.8 × 10,000 cells/well in a volume of 100 µL complete growth medium and were incubated at 37 °C for 24 h. Cells were then treated with serially diluted tested compound and incubated at 37 °C for 48 h. Twenty microliters of 3-(4,5-dimethylthiazol-2-yl)-2,5-diphenyltetrazolium bromide (MTT) (2.5 mg/mL) dissolved in PBS were added to the cells and cells were further incubated for 4 h at 37 °C. To dissolve formazan crystals, MTT solutions were completely removed and 100 μL DMSO was added. The absorbance was detected at 540 nm using a Spectramax 250 microplate reader (Molecular device, San Jose, CA, USA), and viability (%) was calculated as [optical density (OD) of treated group/OD of control group] × 100.

[2] = tested on: MCF-7 breast cancer cells; assay: MTT assay, antiproliferative activity, MCF-7; assay type: cell-based; settings: Homo sapiens, MCF7, 48 h, read-out: Cytotoxicity IC50 MCF7
Method: as §1, §2

[3] = tested on: A549 lung carcinoma cells; assay: MTT assay, antiproliferative activity, A549; assay type: cell-based; settings: Homo sapiens, 48 h, read-out: Cytotoxicity IC50 A549
Method: as §1, §2

[4] = tested on: HCT116 colon cancer cells; assay: MTT assay, antiproliferative activity, HCT116; assay type: cell-based; settings: Homo sapiens, HCT-116, 48 h, read-out: Cytotoxicity IC50 HCT116
Method: as §1, §2

[5] = tested on: WI-38 human lung fibroblast cells; assay: MTT assay, toxicity on normal cells WI38; assay type: cell-based; settings: WI38 versus cancer cells
Method: as §1, §2

[6] = tested on: MCF-7 cells; assay: Annexin V-FITC apoptosis flow cytometry; assay type: cell-based, human; settings: 10 μm, 48 h
Method: To detect the apoptotic potential of our compound of choice, 4e, an Annexin V-FITC Apoptosis Detection Kit (BioVision, Mountain View, CA, USA) was used based on the manufacturer’s protocol using a dose of 10 μm for 48 h.

[7] = tested on: MCF-7, A549, and HCT; assay: MTT assay, cytotoxicity over the three cancer cell lines; assay type: cell-based; settings: Homo sapiens, average over MCF-7, HCT116, A549, 48 h
Method: as §1, with “The title compounds 4a–q were subjected to MTT assay to determine their cytotoxicity, and their in vitro antiproliferative activity was examined as well. The” for “The”, “cells. Staurosporine was used as a reference drug.” for “cells.”
as §2, with “To dissolve formazan crystals, MTT solutions were completely removed and 100 μL DMSO was added.” left out

[8] = tested on: MCF-7 cells; assay: Cell cycle analysis, propidium iodide flow cytometry; assay type: cell-based, human; settings: 10 µm, 48 h, control 34.72%
Method: To evaluate if the antiproliferative effect of 4e was due to the disturbance of the cell cycle, cells were treated with 10 µm for 48 h. […] Therefore, it is possible that the antiproliferative effect of 4e is due to S-phase cell cycle arrest.
To detect cell cycle status after treating cells with 4e, 1 × 10^6 cells were cultured in six-well plates for twenty-four hours per cell and were then treated with 10 μm of 4e for 48 h. Cells were then washed with phosphate-buffered saline. Cells were then fixed with 70% of cold ethanol and kept at 4 °C overnight. Cell analysis was then analyzed following the manifacorere protocol, using a Propidium Iodide Flow Cytometry Kit for Cell Cycle Analysis (Abcam, Waltham, MA, USA).

| melting point [°C] | Compound | IC50 at 48 h [1] [µM] | IC50 [2] [µM] | IC50 [3] [µM] | IC50 [4] [µM] | selectivity against non-tumorigenic cell line (WI38) (in words) [5] | Annexin-V and 7-AAD positive cell populations [6] | IC50 [7] [µM] | cell population in the S phase [8] [%] |
| --- | --- | --- | --- | --- | --- | --- | --- | --- | --- |
| 248 | COc1ccc2[nH]c(C(=O)N(N)Cc3ccc(C#N)cc3)cc2c1 [4l, N-(4-Cyanobenzyl)-5-methoxy-1H-indole-2-carbohydrazide] | 18.5 ± 1.05 | 81.4 ± 3.9 | 26.6 ± 1.45 | 5.02 ± 0.24 | – | – | – | – |
| 209 | NN(Cc1ccc(F)cc1)C(=O)c1cc2ccccc2[nH]1 [4g, N-(4-Fluorobenzyl)-1H-indole-2-carbohydrazide] | 117 ± 6.65 | 8.31 ± 0.4 | 17 ± 0.93 | 12.3 ± 0.59 | – | – | – | – |
| 204 | NN(Cc1cc(C(F)(F)F)cc(C(F)(F)F)c1)C(=O)c1cc2ccccc2[nH]1 [4e, N-(3,5-Bis(trifluoromethyl)benzyl)-1H-indole-2-carbohydrazide] | 87.2 ± 4.94 | 0.57 ± 0.03 | 3.49 ± 0.19 | 1.95 ± 0.09 | exhibited selectivity toward cancer cells | significant increase | 2 | 48.72 |
| 210 | COc1ccc2[nH]c(C(=O)N(N)Cc3ccccc3)cc2c1 [4d, N-Benzyl-5-methoxy-1H-indole-2-carbohydrazide] | 95.2 ± 5.39 | 3.23 ± 0.16 | 5.69 ± 0.31 | 66.2 ± 3.17 | – | – | – | – |
| 228 | COc1ccc2[nH]c(C(=O)N(N)Cc3ccc(Br)cc3)cc2c1 [4n, N-(4-Bromobenzyl)-5-methoxy-1H-indole-2-carbohydrazide] | 252 ± 14.3 | 141 ± 6.74 | 16.7 ± 0.91 | 61 ± 2.92 | – | – | – | – |
| 238 | NN(Cc1ccc(Br)cc1)C(=O)c1cc2ccccc2[nH]1 [4m, N-(4-Bromobenzyl)-1H-indole-2-carbohydrazide] | 46.1 ± 2.61 | 62.9 ± 3.01 | 12.9 ± 0.7 | 17.5 ± 0.84 | – | – | – | – |
| 225 | COc1ccc2[nH]c(C(=O)N(N)Cc3ccc(Cl)cc3)cc2c1 [4b, N-(4-Chlorobenzyl)-5-methoxy-1H-indole-2-carbohydrazide] | 163 ± 9.25 | 11.5 ± 0.55 | 49.2 ± 2.68 | 190 ± 9.12 | – | – | – | – |
| 190 | NN(Cc1ccc(C(F)(F)F)cc1)C(=O)c1cc2ccccc2[nH]1 [4i, N-(4-(Trifluoromethyl)benzyl)-1H-indole-2-carbohydrazide] | 25.3 ± 1.43 | 23.9 ± 1.15 | 11.6 ± 0.63 | 52.2 ± 2.5 | – | – | – | – |
| 213 | COc1ccc2[nH]c(C(=O)N(N)Cc3ccc([N+](=O)[O-])cc3)cc2c1 [4p, N-(4-Nitrobenzyl)-5-methoxy-1H-indole-2-carbohydrazide] | 17.4 ± 0.99 | 7.01 ± 0.34 | 3.02 ± 0.16 | 19.4 ± 0.93 | – | – | – | – |
| 233 | NN(Cc1ccc(Cl)cc1)C(=O)c1cc2ccccc2[nH]1 [4a, N-(4-Chlorobenzyl)-1H-indole-2-carbohydrazide] | 66.2 ± 3.75 | 21.7 ± 1.04 | 5.9 ± 0.32 | 41.3 ± 1.98 | – | – | – | – |
| 175 | COc1ccc2[nH]c(C(=O)N(N)Cc3ccc(F)cc3)cc2c1 [4h, N-(4-Fluorobenzyl)-5-methoxy-1H-indole-2-carbohydrazide] | 64.1 ± 3.63 | 13.1 ± 0.63 | 23.9 ± 1.3 | 207 ± 9.94 | – | – | – | – |
| 202 | N#Cc1ccc(CN(N)C(=O)c2cc3ccccc3[nH]2)cc1 [4k, N-(4-Cyanobenzyl)-1H-indole-2-carbohydrazide] | 30.8 ± 1.74 | 9.21 ± 0.44 | 2.65 ± 0.14 | 39.1 ± 1.88 | – | – | – | – |
| 220 | COc1ccc2[nH]c(C(=O)N(N)Cc3ccc(C(F)(F)F)cc3)cc2c1 [4j, N-(4-(Trifluoromethyl)benzyl)-5-methoxy-1H-indole-2-carbohydrazide] | 97.9 ± 5.54 | 3.27 ± 0.16 | 6.78 ± 0.37 | 9.16 ± 0.44 | – | – | – | – |
| 237 | NN(Cc1ccccc1)C(=O)c1cc2ccccc2[nH]1 [4c, N-Benzyl-1H-indole-2-carbohydrazide] | 50.4 ± 2.86 | 62 ± 2.97 | 25.3 ± 1.38 | 32.5 ± 1.56 | – | – | – | – |
| 166 | COc1ccc2[nH]c(C(=O)N(N)Cc3ccc(C)cc3)cc2c1 [4q, N-(4-Methylbenzyl)-5-methoxy-1H-indole-2-carbohydrazide] | 56.2 ± 3.18 | 1.01 ± 0.05 | 2.4 ± 0.13 | 6.45 ± 0.31 | – | – | 3.28 ± 2.3 | – |
| 223 | NN(Cc1ccc([N+](=O)[O-])cc1)C(=O)c1cc2ccccc2[nH]1 [4o, N-(4-Nitrobenzyl)-1H-indole-2-carbohydrazide] | 86 ± 4.87 | 3.66 ± 0.18 | 22.3 ± 1.21 | 2.41 ± 0.12 | – | – | – | – |
| 195 | COc1ccc2[nH]c(C(=O)N(N)Cc3cc(C(F)(F)F)cc(C(F)(F)F)c3)cc2c1 [4f, N-(3,5-Bis(trifluoromethyl)benzyl)-5-methoxy-1H-indole-2-carbohydrazide] | 24.4 ± 1.38 | 58.1 ± 2.78 | 8.33 ± 0.45 | 9.79 ± 0.47 | – | – | – | – |
